The text below walks through data of patent publication US5523314A, “Compounds useful as hypoglycemic agents and for treating Alzheimer's disease” (priority 1994, dated 1996).

Like-named read-outs stand apart in the source and are kept apart here.

In assay [1] the test system is blood glucose level. The experiment in a line: Hypoglycemic activity in obese diabetic mice (Table 1). The assay is classed as in vivo, male viable yellow obese-diabetic mice. The following applies: for response vs control in vivo at 10 mg/kg / response vs control in vivo at 25 mg/kg / response vs control in vivo at 50 mg/kg: Mus musculus, ip, intraperitoneal; for ability to lower blood glucose levels in mammals: compared to structurally similar compounds known in the art, in words. Summed up: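 Male viable yellow obese-diabetic mice, six per group, dosed intraperitoneally once with compound in saline containing 2% Emulphor. Blood glucose measured by glucose oxidase before dosing and at 2 and 4 h. Values are the 2 h and 4 h glucose as % of pre-dose level.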

Assay [2] deals with blood glucose level. The experiment in a line: Hypoglycemic activity in normal fed rats (Table 2). The assay is classed as in vivo, male Sprague Dawley rats. The following applies: Rattus norvegicus, oral. How it is done: The procedure used in this test system is described below.
The desired dose level of each test formulation was administered to four rats by oral […] at the beginning of the experiment. Blood glucose levels were determined immediately before the first dose and at 3 and 5 hours thereafter by an enzymatic procedure employing glucose oxidase and peroxidase coupled with a chromogenic oxygen acceptor. A mean was taken of the 4 values obtained before the first dose and at the 3 and 5 hour intervals.

Assay [3] deals with plasma glucose concentration. Briefly: Long-term hypoglycemic activity, compound in diet, A^vy /a mice (Table 4). The assay is classed as in vivo, viable yellow mouse. The following applies: 0.1% in diet, Male A^vy /a (Harlan). How it is done: (§1) Finally, the long-term hypoglycemic activity of the compounds of the present invention was tested in yet another in vivo test system. This long-term test system entailed incorporating test compound into the test animal's diet at various concentrations (control animal's diet contained no test compound). Such diet was then fed to the test or control animals for either 14 or 21 days. Each test or control animal was then bled from the tail (200-400 μl sample of blood) at 0 (before diet started), 7, 14 and, if appropriate, 21 and 28 days after diet administration was started. Plasma samples were then obtained from each blood sample collected and the glucose concentration of such plasma samples was determined enzymatically.
(§2) Columns 4-8 provide the plasma glucose concentration at days 0, 7, 14 and, if appropriate, 21 and 28, respectively, for the animals tested. Glucose lowering was not associated with depressed diet consumption.

Assay [4] has as its system blood glucose level. The experiment in a line: Hypoglycemic activity in obese diabetic Zucker rats (Table 3). The assay is classed as in vivo, obese diabetic Zucker rat (Zucker Diabetic Fatty Rat). The following applies: oral. How it is done: Male Sprague Dawley rats (Charles River Laboratories) weighing 175-200 g were used in this test system. […] The desired dose level of each test formulation was administered to four rats by oral […] at the beginning of the experiment. Blood glucose levels were determined immediately before the first dose and at 3 and 5 hours thereafter by an enzymatic procedure employing glucose oxidase and peroxidase coupled with a chromogenic oxygen acceptor. A mean was taken of the 4 values obtained before the first dose and at the 3 and 5 hour intervals.
The procedure used in this test system is the same as that described for the normal fed rat test system, above. The format of Table 3 is the same as that used in Table 2.

A further assay addresses T1, Human liver cathepsin D (Homo sapiens, UniProt P07339).
T1 construct: purchased Athens Research and Technology, Athens, Ga; host or cells: human liver
Briefly: Cathepsin D inhibition, fluorometric assay (Tables 5 and 6). The assay is classed as biochemical. The following applies: for inhibition at 4.15 µg/mL (stock): Compound Stock Concentration 4.15 μg/ml. The method in brief:
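Human liver cathepsin D at 500 ng/mL in 200 mM NaOAc pH 4.5, 150 mM NaCl, incubated 30 minutes at 37° C. Reaction stopped with microsomal leucine aminopeptidase (pH 8.0), which over two hours at 37° C releases AMC from cleavage products for fluorometric reading; aminopeptidase inhibition checked with Leu-pNA.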

The test system of assay [5] is plasma glucose concentration. Briefly: Long-term hypoglycemic activity, compound in diet, ZDF rats (Table 4). The assay is classed as in vivo, 8 week old male Zucker Diabetic Fatty rat. The following applies: 0.1% in diet. How it is done: as §1, §2
The test system of a further assay is β-amyloid protein. Briefly: β-amyloid protein production inhibition in 293 751 SWE and CHO 751 SWE cells, ELISA (Table 7). The assay is classed as cell-based. The following applies: Compound Stock Concentration 10.0 μg/ml; normalized for cytotoxicity. How it is done:
Two cell lines (human kidney cell line 293 and Chinese hamster ovary cell line CHO) were stably transfected with the gene for APP751 containing the double mutation Lys-651-Met-652 to Asn-651-Leu-652 (APP-751 numbering) commonly called the Swedish mutation using the method described in Citron et al., Nature 360:672-674 (1992). The transfected cell lines were designated as 293 751 SWE and CHO 751 SWE, and were plated in Corning 96 well plates at 2.5×10^4 or 1×10^4 cells per well respectively in Dulbecco's minimal essential media (DMEM) plus 10% fetal bovine serum. […] These compound stocks were prepared by dissolving a sufficient quantity of the particular compound to be tested in DMSO such that various concentrations were obtained. After this pretreatment period, the conditioned media was removed and replaced with fresh conditioned media and the cells were incubated for an additional two hours.
After treatment, plates were centrifuged in a Beckman GPR at 1200 rpm for five minutes at room temperature to pellet cellular debris from the conditioned media. From each well, 100 μL of conditioned media were transferred into an ELISA plate precoated with antibody 266 [Seubert et al., Nature, 359:325-327 (1992)] and stored at 4° C. overnight prior to the completion of the ELISA assay the next day.
Cytotoxic effects of the compounds were measured by a modification of the method of Hansen et al., J. Immun. Meth. 119:203-210 (1989). To the cells remaining in the tissue culture plate, was added 25 μL of a 3-(4,5-dimethylthiazol-2-yl)-2,5-diphenyltetrazolium bromide (MTT) stock solution (5 mg/mL) to a final concentration of 1 mg/mL. Cells were incubated at 37° C. for one hour, and cellular activity was stopped by the addition of an equal volume of MTT lysis buffer (20% w/v sodium dodecylsulfate in 50% DMF, pH 4.7). Complete extraction was achieved by overnight shaking at room temperature. The difference in the OD562nm and the OD650nm was measured in a Molecular Devices UVmax microplate reader as an indicator of the cellular viability.
The results of the β-amyloid protein ELISA were fit to a standard curve and expressed as ng/mL β-amyloid protein peptide. In order to normalize for cytotoxicity, these β-amyloid protein results were divided by the cytotoxicity results and expressed as a percentage of the results from a drug-free control.

Setting [6] is: 2 h, 2 hrs, read-out: Percent of Initial Blood Glucose Level After 2 hrs.
Setting [7] is: 4 h, 4 hrs, read-out: Percent of Initial Blood Glucose Level After 4 hrs.
Where [8] appears, read: 3 hrs, read-out: Percent of Initial Blood Glucose Level After 3 hrs.
[9] abbreviates: 5 hrs, read-out: Percent of Initial Blood Glucose Level After 5 hrs.

T1 sequence (P07339 169-412 limits assumed): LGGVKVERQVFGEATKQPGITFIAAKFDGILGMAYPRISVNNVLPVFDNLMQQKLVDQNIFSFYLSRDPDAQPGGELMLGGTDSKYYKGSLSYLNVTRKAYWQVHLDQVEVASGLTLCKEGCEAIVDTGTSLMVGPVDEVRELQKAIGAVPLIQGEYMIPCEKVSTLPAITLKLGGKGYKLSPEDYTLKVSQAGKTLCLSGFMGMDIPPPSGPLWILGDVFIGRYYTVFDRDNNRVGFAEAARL
T1 sequence (P07339 65-161 limits assumed): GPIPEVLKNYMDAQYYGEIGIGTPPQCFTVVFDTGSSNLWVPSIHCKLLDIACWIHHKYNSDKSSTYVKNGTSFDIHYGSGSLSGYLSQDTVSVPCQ

Regarding `CCOc1ccc(C=C2SC(=S)NC2=O)cc1OCC` [Example 38, 5-[(3,4-diethoxyphenyl)methylene]-2-thioxo-4-thiazolidinone], the response vs control in vivo at 10 mg/kg was 72 ± 4% with blood glucose level [1] (setting [6]) and 71 ± 6% in the assay with blood glucose level [1] (setting [7]). Also, the values for the response vs control in vivo at 25 mg/kg with blood glucose level [1] (setting [6]) and in the assay on blood glucose level [1] (setting [7]) were 69 ± 9% and 65 ± 7%, respectively. Also, the response vs control in vivo at 200 mg/kg in the assay with blood glucose level [2] (setting [8]) was found to be 90%; in the assay on blood glucose level [2] (setting [9]) it was 74%. Moreover, the “Plasma Glucose Concentration” value in assay [3] (day 0 (before diet started)) came out at 340 mg/dL; in assay [3] (day 7), 351 mg/dL; in assay [3] (day 14), 328 mg/dL; in assay [3] (day 21), 303 mg/dL; in assay [3] (day 28), 331 mg/dL.

For `CCCCCOc1ccc(C=C2SC(=S)NC2=O)cc1` [Example 47, 5-[(4-pentoxyphenyl)methylene]-2-thioxo-4-thiazolidinone], in the assay on blood glucose level [1] (setting [6]), the response vs control in vivo at 50 mg/kg is 99 ± 14%. For the same molecule, in the assay on blood glucose level [1] (setting [7]), the response vs control in vivo at 50 mg/kg amounted to 76 ± 8%. The “ability to lower blood glucose levels in mammals” value in the assay with blood glucose level [1] is “surprising ability to lower blood glucose levels in mammals”. Also, the response vs control in vivo at 200 mg/kg in the assay with blood glucose level [2] (setting [8]) was determined as 82%. Further, the response vs control in vivo at 200 mg/kg in the assay with blood glucose level [2] (setting [9]) is 73%. Besides, in the assay on blood glucose level [4] (167 mg/kg), the “Percent of Initial Blood Glucose Level After 3 hrs.” value stood at 74% and the “Percent of Initial Blood Glucose Level After 5 hrs.” value was determined as 66%. Also, at Human liver cathepsin D, half-maximal inhibition (IC50) required 5.2 µM and the inhibition at 4.15 µg/mL (stock) came out at 60.5%.

Take `CCCCOc1ccc(C=C2SC(=S)NC2=O)cc1OCC` [Example 56, 5-[(3-ethoxy-4-butoxyphenyl)methylene]-2-thioxo-4-thiazolidinone]: in the assay with blood glucose level [1] (setting [6]), the response vs control in vivo at 10 mg/kg turned out to be 94 ± 4%, the response vs control in vivo at 25 mg/kg stood at 81 ± 8% and the response vs control in vivo at 50 mg/kg came out at 78 ± 4%. Further, in the assay on blood glucose level [1] (setting [7]), the response vs control in vivo at 10 mg/kg turned out to be 97 ± 4%, the response vs control in vivo at 25 mg/kg turned out to be 75 ± 3% and the response vs control in vivo at 50 mg/kg turned out to be 72 ± 3%. For the same molecule, the “ability to lower blood glucose levels in mammals” value in the assay on blood glucose level [1] is listed as “surprising ability to lower blood glucose levels in mammals”. Moreover, the response vs control in vivo at 150 mg/kg in the assay on blood glucose level [2] (setting [8]) was found to be 79%. Moreover, in the assay with blood glucose level [2] (setting [9]), the response vs control in vivo at 150 mg/kg was 65%. Also, in the assay with blood glucose level [4] (50 mg/kg), the “Percent of Initial Blood Glucose Level After 3 hrs.” value is on record as 79% and the “Percent of Initial Blood Glucose Level After 5 hrs.” value amounted to 66%. Besides, at Human liver cathepsin D, 12.3 µM corresponded to half-maximal inhibition (IC50) and the inhibition at 4.15 µg/mL (stock) stood at 73%. For the same molecule, the “ability to inhibit cathepsin D” value on Human liver cathepsin D (compared to structurally similar compounds known in the art, in words) is reported as “surprising ability to inhibit cathepsin D levels”.

With `CCCCCOc1ccc(CC2SC(=S)NC2=O)cc1OC` (stereo not shown) [Example 64, 5-[(3-methoxy-4-pentoxyphenyl)methyl]-2-thioxo-4-thiazolidinone], the response vs control in vivo at 200 mg/kg with blood glucose level [2] (setting [8]) came to 91%; in the assay with blood glucose level [2] (setting [9]) it was 89%. The “Plasma Glucose Concentration” value came out at 339 mg/dL in assay [5] (day 0 (before diet started)), 187 mg/dL in assay [5] (day 7) and 182 mg/dL in assay [5] (day 14).

Consider `CCCCCOc1c(OC)cc(C=C2SC(=S)NC2=O)cc1OC` [Example 70, 5-[(3,5-dimethoxy-4-pentoxyphenyl)methylene]-2-thioxo-4-thiazolidinone], for which the “Plasma Glucose Concentration” value was 300 mg/dL in assay [5] (day 0 (before diet started)), 190 mg/dL in assay [5] (day 7) and 195 mg/dL in assay [5] (day 14). Besides, the midpoint of inhibition at Human liver cathepsin D, the IC50, lay at 5.4 µM. Further, the inhibition at 4.15 µg/mL (stock) at Human liver cathepsin D came to 66%. Further, the inhibition at 10 µg/mL (stock) in the assay on β-amyloid protein amounted to 38%.

With `CC(C)(C)c1cc(C=C2SC(=S)NC2=O)cc(CSc2ccccc2)c1O` [Example 71], the “Plasma Glucose Concentration” value in assay [5] (day 0 (before diet started)) is 311 mg/dL; in assay [5] (day 7), 237 mg/dL; in assay [5] (day 14), 232 mg/dL. In addition, at Human liver cathepsin D (50% inhibition of cathepsin D), the IC50 was determined as 2.1 µM. On Human liver cathepsin D (Compound Stock Concentration 8.3 μg/ml), this molecule returned an inhibition at 8.3 µg/mL (stock) of 94%. Also, the values for the inhibition at 10 µg/mL (stock) on Human liver cathepsin D (Compound Stock Concentration 10.0 μg/ml) and in the assay with β-amyloid protein were 76% and 65%, respectively.
